Assays:
Type in all cases: binding
PCSK9 [1] = molecular target: T1, PCSK9 (Homo sapiens, UniProt Q8NBP7); assay: PCSK9 Alexa FRET Plus TR-FRET assay
T1 construct: biotin (biotinylated); purchased
Method in brief: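 Compounds displace an AlexaFluor-labeled cyclic peptide (1920 nM solution, not final) from europium-tagged PCSK9; time-resolved FRET read after ≥2 h at room temperature. Ki derived from fitted IC50 and peptide KD, europium donor counts monitored to detect compound interference, results given in nanomolar.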

PCSK9 [2] = molecular target: T1, PCSK9; assay: PCSK9 Alexa FRET Ultra TR-FRET assay
Method in brief: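 TR-FRET read after ≥2 h at room temperature between europium-PCSK9 and an AlexaFluor cyclic peptide, stated as a 1920 nM solution. Sigmoidal nonlinear regression gives IC50, and Ki in nM follows from the peptide KD; europium counts are monitored for compound interference.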

PCSK9 [3] = molecular target: T1, PCSK9; assay: PCSK9 Alexa FRET Standard TR-FRET assay; settings: Ki calculated from IC50 and KD of AF cyclic peptide Reagent A; 0.5 nM PCSK9, 20 nM AF cyclic peptide; read-out: Alexa FRET Stdt TR-FRET
Method in brief: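 Ki (nM) calculated from sigmoidal-fit IC50 and the KD of an AlexaFluor-labelled cyclic peptide (20 nM final) competing with compound for biotinylated PCSK9 (0.5 nM) bound to Eu-streptavidin (1.25 nM). Incubation at least 2 h, room temperature, HEPES pH 7.4 buffer with CaCl2; falling europium counts flag false positives.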

[4] = Ki calculated from IC50 and KD of AF cyclic peptide Reagent B, 0.5 nM PCSK9, 960 nM AF cyclic peptide, read-out: Alexa FRET Plus TR-FRET
[5] = Ki Ultra, calculated from IC50 and KD of AF cyclic peptide, 0.5 nM PCSK9, 960 nM AF cyclic peptide, read-out: Alexa FRET Ultra TR-FRET

T1 sequence (Q8NBP7 153-692): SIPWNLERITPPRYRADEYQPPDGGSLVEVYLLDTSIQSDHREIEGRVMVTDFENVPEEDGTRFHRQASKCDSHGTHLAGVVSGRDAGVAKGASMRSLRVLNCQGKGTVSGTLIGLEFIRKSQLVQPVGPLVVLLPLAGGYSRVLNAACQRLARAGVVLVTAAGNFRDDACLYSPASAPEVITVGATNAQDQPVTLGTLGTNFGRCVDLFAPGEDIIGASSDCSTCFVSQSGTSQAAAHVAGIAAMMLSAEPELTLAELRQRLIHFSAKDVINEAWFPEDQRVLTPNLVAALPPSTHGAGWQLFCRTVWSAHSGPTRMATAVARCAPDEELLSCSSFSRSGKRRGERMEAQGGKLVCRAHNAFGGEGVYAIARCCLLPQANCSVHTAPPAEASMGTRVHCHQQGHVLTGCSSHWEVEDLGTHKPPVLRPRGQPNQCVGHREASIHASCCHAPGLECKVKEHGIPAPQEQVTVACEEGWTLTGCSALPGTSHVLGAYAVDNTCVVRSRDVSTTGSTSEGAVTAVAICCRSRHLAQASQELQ

Row | Ki (PCSK9 [3]) | Ki (PCSK9 [1]; [4]) | Ki (PCSK9 [2]; [5]) | Structure (SMILES) | Ki (PCSK9 [1]) | Ki (PCSK9 [2])
1 | < 1260 pM | < 6 pM | 4 pM | COc1ccc(C[C@@H]2NC(=O)[C@H]([C@@H](C)O)NC(=O)[C@@H]3[C@@H]4CCN3C(=O)[C@@H]3Cc5cn(c6ccc(F)cc56)CCCCCCN(Cc5ccc(cc5)CCNC(=O)[C@]5(C)CCCN5C2=O)C(=O)CCC(=O)N[C@@H](C)C(=O)N[C@H](CNC(=O)COCCOCCNC(=O)COCCOCCNC(=O)CCCCC[N+](C)(C)CCNC(=O)CC[C@H](NC(=O)CCCCCCCCCCCCCCCCC(=O)O)C(=O)O)C(=O)N[C@@H](Cc2cccc(c2)CNC(=O)CO4)C(=O)N3)cc1 [compound 30] |  | 
2 | < 1260 pM | 9 pM | 11 pM | COc1ccc(C[C@@H]2NC(=O)[C@H]([C@@H](C)O)NC(=O)[C@@H]3[C@@H]4CCN3C(=O)[C@@H]3Cc5cn(c6ccc(F)cc56)CCCCCCN(Cc5ccc(cc5)CCNC(=O)[C@]5(C)CCCN5C2=O)C(=O)CCC(=O)N[C@@H](C)C(=O)N[C@H](CNC(=O)COCCOCCNC(=O)CCOCCOCC[N+](C)(C)CCNC(=O)COCCOCCNC(=O)COCCOCCNC(=O)CC[C@H](NC(=O)CCCCCCCCCCCCCCCCC(=O)O)C(=O)O)C(=O)N[C@@H](Cc2cccc(c2)CNC(=O)CO4)C(=O)N3)cc1 [compound 32] |  | 
3 | < 1260 pM | < 6 pM | 6 pM | COc1ccc(C[C@@H]2NC(=O)[C@H]([C@@H](C)O)NC(=O)[C@@H]3[C@@H]4CCN3C(=O)[C@@H]3Cc5cn(c6ccc(F)cc56)CCCCCCN(Cc5ccc(cc5)CCNC(=O)[C@]5(C)CCCN5C2=O)C(=O)CCC(=O)N[C@@H](C)C(=O)N[C@H](CNC(=O)COCCOCCNC(=O)COCCOCCNC(=O)CC[C@H](NC(=O)CC[C@H](NC(=O)CCOCCOCC[N+](C)(C)CCNC(=O)CCCCCCCCCCCCCCC(=O)O)C(=O)O)C(=O)O)C(=O)N[C@@H](Cc2cccc(c2)CNC(=O)CO4)C(=O)N3)cc1 [compound 37] |  | 
4 | < 1260 pM | < 6 pM | 2 pM | COc1ccc(C[C@@H]2NC(=O)[C@H]([C@@H](C)O)NC(=O)C3C4CCN3C(=O)[C@@H]3Cc5cn(c6ccc(F)cc56)CCCCCCN(Cc5ccc(cc5)CCNC(=O)[C@]5(C)CCCN5C2=O)C(=O)CCC(=O)N[C@@H](C)C(=O)N[C@H](CNC(=O)CCOCCOCC[N+](C)(C)CCNC(=O)CCOCCOCC[N+](C)(C)CCNC(=O)COCCOCCNC(=O)COCCOCCNC(=O)CCCCCCCCCCCCCCC(=O)O)C(=O)N[C@@H](Cc2cccc(c2)CNC(=O)CO4)C(=O)N3)cc1 [compound 43] |  | 
5 | < 1260 pM | < 6 pM | 2 pM | COc1ccc(C[C@@H]2NC(=O)[C@H]([C@@H](C)O)NC(=O)[C@@H]3[C@@H]4CCN3C(=O)[C@@H]3Cc5cn(c6ccc(F)cc56)CCCCCCN(Cc5ccc(cc5)CCNC(=O)[C@]5(C)CCCN5C2=O)C(=O)CCC(=O)N[C@@H](C)C(=O)N[C@H](CNC(=O)COCCOCC[N+](C)(C)CCOCCNC(=O)COCCOCCNC(=O)COCCOCCNC(=O)CC[C@H](NC(=O)CCCCCCCCCCCCCCC(=O)O)C(=O)O)C(=O)N[C@@H](Cc2cccc(c2)CNC(=O)CO4)C(=O)N3)cc1 [compound 45] |  | 

Further lines, the compound ahead of its results:

Row | Structure (SMILES) | Ki (PCSK9 [3]) | Ki (PCSK9 [1]; [4]) | Ki (PCSK9 [2]; [5]) | Ki (PCSK9 [1]) | Ki (PCSK9 [2])
6 | COc1ccc(C[C@@H]2NC(=O)[C@H]([C@@H](C)O)NC(=O)[C@@H]3[C@@H]4CCN3C(=O)[C@@H]3Cc5cn(c6ccc(F)cc56)CCCCCCN(Cc5ccc(cc5)CCNC(=O)[C@]5(C)CCCN5C2=O)C(=O)CCC(=O)N[C@@H](C)C(=O)N[C@H](CNC(=O)CCCCC[N+](C)(C)CCNC(=O)COCCOCCNC(=O)CCCCCCCCCCCCCCCCC(=O)O)C(=O)N[C@@H](Cc2cccc(c2)CNC(=O)CO4)C(=O)N3)cc1 [Example 1] | < 1260 pM |  |  | < 6 pM | 7 pM
7 | COc1ccc(C[C@@H]2NC(=O)[C@H]([C@@H](C)O)NC(=O)[C@@H]3[C@@H]4CCN3C(=O)[C@@H]3Cc5cn(c6ccc(F)cc56)CCCCCCN(Cc5ccc(cc5)CCNC(=O)[C@]5(C)CCCN5C2=O)C(=O)CCC(=O)N[C@@H](C)C(=O)N[C@H](CNC(=O)CCCCC[N+](C)(C)CCNC(=O)COCCOCCNC(=O)COCCOCCNC(=O)CC[C@H](NC(=O)CCCCCCCCCCCCCCCCC(=O)O)C(=O)O)C(=O)N[C@@H](Cc2cccc(c2)CNC(=O)CO4)C(=O)N3)cc1 [Example 2] | < 1260 pM |  |  | 14 pM | 6 pM
8 | COc1ccc(C[C@@H]2NC(=O)[C@H]([C@@H](C)O)NC(=O)[C@@H]3[C@@H]4CCN3C(=O)[C@@H]3Cc5cn(c6ccc(F)cc56)CCCCCCN(Cc5ccc(cc5)CCNC(=O)[C@]5(C)CCCN5C2=O)C(=O)CCC(=O)N[C@@H](C)C(=O)N[C@H](CNC(=O)CCCCC[N+](C)(C)CCNC(=O)COCCOCCNC(=O)COCCOCCNC(=O)CC[C@H](NC(=O)CCCCCCCCCCCCCCC(=O)O)C(=O)O)C(=O)N[C@@H](Cc2cccc(c2)CNC(=O)CO4)C(=O)N3)cc1 [Example 3] | < 1260 pM |  |  | < 6 pM | 5 pM
9 | COc1ccc(C[C@@H]2NC(=O)[C@H]([C@@H](C)O)NC(=O)[C@@H]3[C@@H]4CCN3C(=O)[C@@H]3Cc5cn(c6ccc(F)cc56)CCCCCCN(Cc5ccc(cc5)CCNC(=O)[C@]5(C)CCCN5C2=O)C(=O)CCC(=O)N[C@@H](C)C(=O)N[C@H](CNC(=O)CCOCCOCC[N+](C)(C)CCNC(=O)COCCOCCNC(=O)COCCOCCNC(=O)CC[C@H](NC(=O)CCCCCCCCCCCCCCC(=O)O)C(=O)O)C(=O)N[C@@H](Cc2cccc(c2)CNC(=O)CO4)C(=O)N3)cc1 [Example 4] | < 1260 pM |  |  | < 6 pM | 3 pM
10 | COc1ccc(C[C@@H]2NC(=O)[C@H]([C@@H](C)O)NC(=O)[C@@H]3[C@@H]4CCN3C(=O)[C@@H]3Cc5cn(c6ccc(F)cc56)CCCCCCN(Cc5ccc(cc5)CCNC(=O)[C@]5(C)CCCN5C2=O)C(=O)CCC(=O)N[C@@H](C)C(=O)N[C@H](CNC(=O)CC[C@H](NC(=O)CCCCC[N+](C)(C)CCNC(=O)COCCOCCNC(=O)COCCOCCNC(=O)CC[C@H](NC(=O)CCCCCCCCCCCCCCCCC(=O)O)C(=O)O)C(=O)O)C(=O)N[C@@H](Cc2cccc(c2)CNC(=O)CO4)C(=O)N3)cc1 [compound 33] | < 1260 pM | 14 pM | 16 pM |  | 
11 | COc1ccc(C[C@@H]2NC(=O)[C@H]([C@@H](C)O)NC(=O)[C@@H]3[C@@H]4CCN3C(=O)[C@@H]3Cc5cn(c6ccc(F)cc56)C/C=C/CCCN(Cc5ccc(cc5)CCNC(=O)[C@]5(C)CCCN5C2=O)C(=O)CCC(=O)N[C@@H](C)C(=O)N[C@H](CNC(=O)CCOCCOCC[N+](C)(C)CCNC(=O)COCCOCCNC(=O)COCCOCCNC(=O)CC[C@H](NC(=O)CCCCCCCCCCCCCCC(=O)O)C(=O)O)C(=O)N[C@@H](Cc2cccc(c2)CNC(=O)CO4)C(=O)N3)cc1 [compound 46] | < 1260 pM |  |  | < 6 pM | 1 pM
